Patent publication US7342017B2, “1,2,5-Thiadiazol-3-yl-piperazine therapeutic agents useful for treating pain, depression and anxiety” (Euro-Celtique S.A., priority 2002, dated 2008)

Key:
Human VR1 Receptor [1] = target: T1, Human VR1 Receptor (Homo sapiens, UniProt Q8NER1); assay: Inhibition of capsaicin-induced activation of VR1; format: cell-based; settings: mean ± spread, (n) = number of experiments, read-out: Inhibition of capsaicin-induced activation IC50 (nM) Mean IC50 ± SEC (n)
From the text: (§1) Binding of the Thiadiazolylpiperazine Compounds to the Human VR1 Receptor
(§2) Methods for assaying compounds capable of inhibiting VR1 are well known to those skilled in the art, for example, those methods disclosed in U.S. Pat. No. 6,239,267 to Duckworth et al.; U.S. Pat. No. 6,406,908 to McIntyre et al.; or U.S. Pat. No. 6,335,180 to Julius et al.

Human VR1 Receptor [2] = target: T1, Human VR1 Receptor; assay: Inhibition of pH-induced activation of VR1; format: cell-based; settings: mean ± spread, (n) = number of experiments, read-out: Inhibition of pH-induced activation IC50 (nM) Mean IC50 ± SEC (n)
From the text: as §1, §2

T1 sequence (Q8NER1 whole entry): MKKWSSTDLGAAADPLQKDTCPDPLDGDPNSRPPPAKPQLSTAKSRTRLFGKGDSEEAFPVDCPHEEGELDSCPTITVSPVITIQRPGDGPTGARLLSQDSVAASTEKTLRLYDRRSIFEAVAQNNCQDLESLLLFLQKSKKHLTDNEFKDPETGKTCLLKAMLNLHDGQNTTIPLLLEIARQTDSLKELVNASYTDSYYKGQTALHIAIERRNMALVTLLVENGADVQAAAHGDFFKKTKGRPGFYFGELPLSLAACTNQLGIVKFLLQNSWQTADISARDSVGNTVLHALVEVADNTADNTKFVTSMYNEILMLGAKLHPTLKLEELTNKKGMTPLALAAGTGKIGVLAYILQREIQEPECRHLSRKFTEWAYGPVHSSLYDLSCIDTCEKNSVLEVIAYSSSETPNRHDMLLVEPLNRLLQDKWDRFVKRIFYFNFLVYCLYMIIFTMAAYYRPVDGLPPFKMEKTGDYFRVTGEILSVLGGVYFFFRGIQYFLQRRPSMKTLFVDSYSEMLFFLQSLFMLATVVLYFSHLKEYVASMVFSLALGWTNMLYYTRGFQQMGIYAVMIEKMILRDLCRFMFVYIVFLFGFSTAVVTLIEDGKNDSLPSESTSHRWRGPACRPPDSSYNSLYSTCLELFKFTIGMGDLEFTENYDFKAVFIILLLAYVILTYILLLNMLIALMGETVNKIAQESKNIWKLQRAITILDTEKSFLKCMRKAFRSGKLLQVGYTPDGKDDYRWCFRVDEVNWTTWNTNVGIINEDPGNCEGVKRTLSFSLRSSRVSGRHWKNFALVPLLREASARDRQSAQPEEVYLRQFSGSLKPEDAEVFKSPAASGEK

CC(C)c1ccc(NC(=O)N2CCN(c3nsnc3Cl)CC2)cc1
IC50 (Human VR1 Receptor [1]): 374 ± 233 nM | IC50 (Human VR1 Receptor [2]): 668 ± 265 nM
